Assay results from the NIST ThermoML archive (doi:10.1007/s10765-012-1371-1).

How the values were obtained:
[1] = xn = mol fraction of the nth substance listed; conditions: 101 kPa, Liquid
[2] = 101 kPa, Liquid

CCCCCl [1-chlorobutane] + CCCCOCC
[1], x1 = 1
Conditions | viscosity [mPa·s]
283.15 K | 0.4993
288.15 K | 0.4701
293.15 K | 0.4433
298.15 K | 0.4214
303.15 K | 0.405
308.15 K | 0.3885
313.15 K | 0.3642

COC(C)(C)C [2-methoxy-2-methylpropane] + CCCCCl
[1], x2 = 0
Conditions | viscosity [mPa·s]
283.15 K | 0.3897
288.15 K | 0.364
293.15 K | 0.3482
298.15 K | 0.3327
303.15 K | 0.3152
308.15 K | 0.2994
313.15 K | 0.2846

CC(C)CCl [1-chloro-2-methylpropane] + CCCCOCC
[1], x1 = 1
Conditions | viscosity [mPa·s]
283.15 K | 0.5155
288.15 K | 0.4833
293.15 K | 0.454
298.15 K | 0.4296
303.15 K | 0.4112
308.15 K | 0.3921
313.15 K | 0.3726

COC(C)(C)C [2-methoxy-2-methylpropane] + CCC(C)Cl
[1], x2 = 0
Conditions | viscosity [mPa·s]
283.15 K | 0.3897
288.15 K | 0.364
293.15 K | 0.3482
298.15 K | 0.3327
303.15 K | 0.3152
308.15 K | 0.2994
313.15 K | 0.2846

COC(C)(C)C [2-methoxy-2-methylpropane]
[2]
Conditions | viscosity [mPa·s]
283.15 K | 0.3897
288.15 K | 0.364
293.15 K | 0.3482
298.15 K | 0.3327
303.15 K | 0.3152
308.15 K | 0.2994
313.15 K | 0.2846

CCC(C)Cl (configuration not stated) [2-chlorobutane] + CCCCOCC
[1], x1 = 1
Conditions | viscosity [mPa·s]
283.15 K | 0.4631
288.15 K | 0.4365
293.15 K | 0.4167
298.15 K | 0.3993
303.15 K | 0.38
308.15 K | 0.3615
313.15 K | 0.3443

CCCCCl [1-chlorobutane]
[2]
Conditions | viscosity [mPa·s]
283.15 K | 0.4993
288.15 K | 0.4701
293.15 K | 0.4433
298.15 K | 0.4214
303.15 K | 0.405
308.15 K | 0.3885
313.15 K | 0.3642

CCC(C)Cl (configuration not stated) [2-chlorobutane]
[2]
Conditions | viscosity [mPa·s]
283.15 K | 0.4631
288.15 K | 0.4365
293.15 K | 0.4167
298.15 K | 0.3993
303.15 K | 0.38
308.15 K | 0.3615
313.15 K | 0.3443

COC(C)(C)C [2-methoxy-2-methylpropane] + CC(C)CCl
[1], x2 = 0
Conditions | viscosity [mPa·s]
283.15 K | 0.3897
288.15 K | 0.364
293.15 K | 0.3482
298.15 K | 0.3327
303.15 K | 0.3152
308.15 K | 0.2994
313.15 K | 0.2846

CC(C)CCl [1-chloro-2-methylpropane]
[2]
Conditions | viscosity [mPa·s]
283.15 K | 0.5155
288.15 K | 0.4833
293.15 K | 0.454
298.15 K | 0.4296
303.15 K | 0.4112
308.15 K | 0.3921
313.15 K | 0.3726

CCCCOCC [butyl ethyl ether]
[2]
Conditions | viscosity [mPa·s]
283.15 K | 0.4796
288.15 K | 0.4509
293.15 K | 0.4242
298.15 K | 0.399
303.15 K | 0.3756
308.15 K | 0.356
313.15 K | 0.3416
